We go through 26 molecules from patent US20170304388A1, “NEW INDICATION OF CARDIOVASCULAR DRUGS FOR PREPARATION OF CANCER INHIBITION PHARMACEUTICAL COMPOSITION” (LAUNX BIOMEDICAL CO., LTD., priority 2014, published 2017).

Counter-ions that a name gives are not always drawn.

Common to all, as to format: cell-based
One data set relates to cancer cell lines. The experiment in a line: Growth inhibitory effects on the panel of cancer cell lines. Conditions: drug 10 μM, 72 hours; for Numbers of inhibitory effect on cancer cell line: count of cancer cell lines inhibited; for inhibition effect on different cancer cell lines (in words): WST-1.
The test system of data set [1] is HeLa (Cervix Adenocarcinoma). Put plainly: Cell viability analysis (WST-1), HeLa. Conditions: Homo sapiens, HeLa, 72 h, Table 3, drug 10 μM, WST-1, OD450 nm, read-out: survival rate (viability) of cancer cells, HeLa.
For data set [2], the system named is MCF7 (Mammary Gland, Adenocarcinoma). Put plainly: Cell viability analysis (WST-1), MCF7. Conditions: WST-1, OD450 nm; for viability at 10 µM: Homo sapiens, MCF7, 72 h, Table 3, drug 10 μM, read-out: survival rate (viability) of cancer cells, MCF7.
The subject of data set [3] is MKN-45 (Gastric Adenocarcinoma). Put plainly: Cell viability analysis (WST-1), MKN-45. The note with it: Homo sapiens, MKN-45, 72 h, Table 3, drug 10 μM, WST-1, OD450 nm, read-out: survival rate (viability) of cancer cells, MKN-45.
Data set [4] deals with AGS (Gastric Adenocarcinoma). Put plainly: Cell viability analysis (WST-1), AGS. Conditions: 72 h, Table 3, drug 10 μM, WST-1, OD450 nm, read-out: survival rate (viability) of cancer cells, AGS.
For data set [5], the system named is PC3 (Prostate Adenocarcinoma). The experiment in a line: Cell viability analysis (WST-1), PC3. The note with it: WST-1, OD450 nm; for viability at 10 µM: 72 h, Table 3, drug 10 μM, read-out: survival rate (viability) of cancer cells, PC3.
Data set [6] relates to A375 (Amelanotic Melanoma). The experiment in a line: Cell viability analysis (WST-1), A375. The note with it: WST-1, OD450 nm, lower viability = better inhibition; for viability at 10 µM: Homo sapiens, A-375, 72 h, Table 3, drug 10 μM, read-out: survival rate (viability) of cancer cells, A375.
The test system of data set [7] is H1650 (Lung Adenocarcinoma). Put plainly: Cell viability analysis (WST-1), H1650. Conditions: Homo sapiens, NCI-H1650, 72 h, Table 3, drug 10 μM, WST-1, OD450 nm, read-out: survival rate (viability) of cancer cells, H1650.
For data set [8], the system named is HepG2 (Hepatocellular Carcinoma). The experiment in a line: Cell viability analysis (WST-1), HepG2. The note with it: WST-1, OD450 nm; for viability at 10 µM: Homo sapiens, HepG2, 72 h, Table 3, drug 10 μM, read-out: survival rate (viability) of cancer cells, HepG2.
Data set [9] deals with HCT116 (Colorectal Carcinoma). Put plainly: Cell viability analysis (WST-1), HCT116. The note with it: WST-1, OD450 nm; for viability at 10 µM: Homo sapiens, HCT-116, 72 h, Table 3, drug 10 μM, read-out: survival rate (viability) of cancer cells, HCT116 (WT).
The test system of data set [10] is TSGH-8301 (Urinary Bladder Carcinoma). Put plainly: Cell viability analysis (WST-1), TSGH-8301. Conditions: WST-1, OD450 nm; for viability at 10 µM: 72 h, Table 3, drug 10 μM, read-out: survival rate (viability) of cancer cells, TSGH.
Data set [11] deals with LoVo (Colorectal Adenocarcinoma). The experiment in a line: Cell viability analysis (WST-1), LoVo. The note with it: WST-1, OD450 nm; for viability at 10 µM: Homo sapiens, LoVo, 72 h, Table 3, drug 10 μM, read-out: survival rate (viability) of cancer cells, LoVo.
The test system of data set [12] is A549 (Lung Adenocarcinoma). Put plainly: Cell viability analysis (WST-1), A549. The note with it: Homo sapiens, A549, 72 h, Table 3, drug 10 μM, WST-1, OD450 nm, read-out: survival rate (viability) of cancer cells, A549.
In data set [13] the test system is HL-60 (Acute Promyelocytic Leukemia). Put plainly: Cell viability analysis (WST-1), HL-60. The note with it: Table 3, drug 10 μM, 72 hours, WST-1, OD450 nm.

For `CCC(NC(C)C)C(O)c1ccc(O)c(O)c1` (centres unmarked) [Isoetharine Mesylate], in the data set with cancer cell lines, the “Numbers of inhibitory effect on cancer cell line” value (“Numbers of inhibitory effect” for short) is recorded as 0. Also, in the data set on cancer cell lines, the “inhibition effect on different cancer cell lines (in words)” value is listed as “significant inhibition effect”. For the same molecule, the viability at 10 µM in data set [1] was found to be 81.6%; in data set [2] it was 103%; in data set [3], 91%; in [4], 96.6%; in data set [5], 71.6%; in data set [6], 97%. For the same molecule, the viability at 10 µM turned out to be 91.7% in data set [7]; 76.5% in data set [8]; 96.1% in data set [9]; 88.3% in data set [10]; 100% in data set [11]; 76.7% in data set [12].

As for `NC(=O)c1ncn([C@@H]2O[C@H](CO)[C@@H](O)[C@H]2O)c1N` [Acadesine], the “Numbers of inhibitory effect” value with cancer cell lines was 0. The “inhibition effect on different cancer cell lines (in words)” value in the data set on cancer cell lines is “significant inhibition effect”. Also, the viability at 10 µM in [1] was 88.4%; in [2], 84.7%; in data set [3], 81.5%; in data set [4], 75.4%; in data set [13] (Homo sapiens, HL-60, read-out: survival rate (viability) of cancer cells, HL-60), 110%; in [5], 94.8%. Also, the viability at 10 µM in data set [6] turned out to be 99.1%; in data set [8], 103%; in data set [9] it was 88.7%; in [10], 99.7%; in data set [11], 80.9%; in data set [12], 117%.

On to `CC1Cc2ccccc2N1NC(=O)c1ccc(Cl)c(S(N)(=O)=O)c1` (centres unmarked) [Indapamide (Lozol), Indapamide], for which the “Numbers of inhibitory effect” value in the data set on cancer cell lines is on record as 0. Further, the “inhibition effect on different cancer cell lines (in words)” value with cancer cell lines is reported as “significant inhibition effect”. Besides, the viability at 10 µM in data set [1] worked out at 67.9%; in data set [2] it was 65.5%; in [3], 105%; in data set [4], 109%; in data set [5], 76.8%; in data set [6], 64.8%. The viability at 10 µM in data set [7] came out at 86.7%; in [8], 84%; in [9] it was 80%; in data set [10] it was 85%; in data set [11], 92.7%; in data set [12] it was 106%.

Turning to `COc1ccc([C@H]2CNC(=O)C2)cc1OC1CCCC1` [S-(+)-Rolipram], in the data set with cancer cell lines, the “Numbers of inhibitory effect” value came to 0 and the “inhibition effect on different cancer cell lines (in words)” value is “significant inhibition effect”. Further, the “survival rate (viability) of cancer cells, MCF7” value in [2] (Table 3, drug 10 μM, 72 hours) is on record as 80.4. The “survival rate (viability) of cancer cells, HL-60” value in data set [13] amounted to 107.3. The “survival rate (viability) of cancer cells, PC3” value in data set [5] (Table 3, drug 10 μM, 72 hours) is reported as 89.3. Also, the “survival rate (viability) of cancer cells, A375” value in [6] (Table 3, drug 10 μM, 72 hours) was found to be 77.0. Besides, the “survival rate (viability) of cancer cells, HepG2” value in [8] (Table 3, drug 10 μM, 72 hours) was 90.4. In data set [9] (Table 3, drug 10 μM, 72 hours), the “survival rate (viability) of cancer cells, HCT116 (WT)” value amounted to 86.2. For the same molecule, the “survival rate (viability) of cancer cells, TSGH” value in data set [10] (Table 3, drug 10 μM, 72 hours) stood at 81.1. In addition, the “survival rate (viability) of cancer cells, LoVo” value in data set [11] (Table 3, drug 10 μM, 72 hours) amounted to 94.1.

For the molecule `C=C[C@H]1C[N@@]2CC[C@H]1C[C@H]2[C@H](O)c1ccnc2ccc(OC)cc12` [Quinine hydrochloride dihydrate], in the data set with cancer cell lines, the “inhibition effect on different cancer cell lines (in words)” value is listed as “significant inhibition effect”.

In the case of `CC(C)NCC(O)COc1cccc2[nH]ccc12` (centres unmarked) [Pindolol], in the data set on cancer cell lines, the “inhibition effect on different cancer cell lines (in words)” value is listed as “significant inhibition effect”.

Turning to `O=C1c2ccccc2C(=O)C1c1ccccc1` [Phenindione (Rectadione), Phenindione], the “inhibition effect on different cancer cell lines (in words)” value with cancer cell lines is “significant inhibition effect”.

Regarding `CCCCc1oc2ccccc2c1C(=O)c1cc(I)c(OCCN(CC)CC)c(I)c1` [Amiodarone HCl], the “inhibition effect on different cancer cell lines (in words)” value in the data set on cancer cell lines is on record as “significant inhibition effect”.

For the molecule `CC(N/C(=N\C#N)Nc1ccncc1)C(C)(C)C` (centres unmarked) [Pinacidil], the “inhibition effect on different cancer cell lines (in words)” value in the data set with cancer cell lines is recorded as “significant inhibition effect”.

For `CN1C(CCl)Nc2cc(Cl)c(S(N)(=O)=O)cc2S1(=O)=O` (centres unmarked) [Methyclothiazide], the “inhibition effect on different cancer cell lines (in words)” value with cancer cell lines is on record as “significant inhibition effect”.

Turning to `Cc1ccccc1N1C(=O)c2cc(S(N)(=O)=O)c(Cl)cc2NC1C` (centres unmarked) [Metolazone (Zaroxolyn), Metolazone], the “inhibition effect on different cancer cell lines (in words)” value with cancer cell lines is listed as “significant inhibition effect”.

In the case of `CC(S)C(=O)NCC(=O)O` (centres unmarked) [Tiopronin (Thiola), Tiopronin], the “inhibition effect on different cancer cell lines (in words)” value in the data set with cancer cell lines is “significant inhibition effect”.

For the molecule Ibutilide fumarate, the “inhibition effect on different cancer cell lines (in words)” value with cancer cell lines is “significant inhibition effect”.

In the case of `Cc1ccc(N(CC2=NCCN2)c2cccc(O)c2)cc1` [Phentolamine mesilate], the “inhibition effect on different cancer cell lines (in words)” value with cancer cell lines is listed as “significant inhibition effect”.

With `COc1ccccc1OCCNCC(O)COc1cccc2[nH]c3ccccc3c12` (centres unmarked) [Carvedilol], in the data set on cancer cell lines, the “inhibition effect on different cancer cell lines (in words)” value is reported as “significant inhibition effect”.

As to `C=C(c1ccc(C(=O)O)cc1)c1cc2c(cc1C)C(C)(C)CCC2(C)C` [Bexarotene], the “inhibition effect on different cancer cell lines (in words)” value in the data set on cancer cell lines was “significant inhibition effect”.

In the case of `CC1=NN(c2ccccc2)C(=O)C1` [Edaravone (MCI-186), Edaravone], the “inhibition effect on different cancer cell lines (in words)” value with cancer cell lines is on record as “significant inhibition effect”.

With `CCOC(=O)[C@H](CCc1ccccc1)N[C@@H](C)C(=O)N1C(=O)N(C)C[C@H]1C(=O)O` [Imidapril (Tanatril) HCl, Imidapril HCl], the “inhibition effect on different cancer cell lines (in words)” value in the data set on cancer cell lines was “significant inhibition effect”.

Consider `C[N+](C)(C)C[C@H](O)CC(=O)[O-]` [L-carnitine (Levocarnitine), L-carnitine], for which the “inhibition effect on different cancer cell lines (in words)” value with cancer cell lines is listed as “significant inhibition effect”.

Consider `C[C@@H]1C(=O)O[C@H]2C[C@@]34[C@H]5C[C@@H](C(C)(C)C)[C@]36[C@@H](OC(=O)[C@@H]6O)O[C@@]4(C(=O)O5)[C@]21O` [Ginkgolide A], for which, in the data set on cancer cell lines, the “inhibition effect on different cancer cell lines (in words)” value is “significant inhibition effect”.

Turning to `NC12CC3CC(CC(C3)C1)C2` [Amantadine hydrochloride (Symmetrel), Amantadine hydrochloride], the “inhibition effect on different cancer cell lines (in words)” value in the data set on cancer cell lines was “significant inhibition effect”.

Consider `COC(=O)[C@H](c1ccccc1Cl)N1CCc2sccc2C1` [Clopidogrel (Plavix), Clopidogrel], for which the “inhibition effect on different cancer cell lines (in words)” value in the data set with cancer cell lines was “significant inhibition effect”.

Regarding `Nc1cccc2c1CN(C1CCC(=O)NC1=O)C2=O` (centres unmarked) [Lenalidomide], the “inhibition effect on different cancer cell lines (in words)” value in the data set with cancer cell lines is “significant inhibition effect”.

As for `O=C(O)[C@H](CC(=O)N1C[C@H]2CCCC[C@H]2C1)Cc1ccccc1` [Mitiglinide calcium], the “inhibition effect on different cancer cell lines (in words)” value in the data set on cancer cell lines is recorded as “significant inhibition effect”.

Take `CCCC(=O)OCOC(=O)C1=C(C)NC(C)=C(C(=O)OC)C1c1cccc(Cl)c1Cl` (centres unmarked) [Cleviprex (Clevidipine), Clevidipine]: in the data set on cancer cell lines, the “inhibition effect on different cancer cell lines (in words)” value was “significant inhibition effect”.

Turning to `NC(N)=Nc1nc(CSCCC(N)=NS(N)(=O)=O)cs1` [Famotidine (Pepcid), Famotidine], the “inhibition effect on different cancer cell lines (in words)” value with cancer cell lines was “significant inhibition effect”.
